# “Also recorded” adds a separate entry of the source. Starred links: 1 amine or outer side, 2 acyl side, 3 side chain; linkers in the order of their positions; H or OH if unused. Positions of bridges follow the written chain, without caps; N, C: chain ends. Non-standard residues stand in square brackets, D forms with d. Residues, ends and D or L forms follow the SMILES beside them. Adda = CO[C@@H](Cc1ccccc1)[C@@H](C)/C=C(C)/C=C/[C@H](N[*:1])[C@H](C)C(=O)[*:2]; dAsp(3S-Me) = C[C@H](C(=O)[*:3])[C@@H](N[*:1])C(=O)[*:2]; d(γGlu) = O=C(O)[C@@H](CCC(=O)[*:2])N[*:1]; NMeDha = C=C(NC)C(=O)O
# Assays:
# [1] = biological target: T1, hPNKP 3'-phosphatase activity (Homo sapiens, UniProt Q96T60); experiment: Conventional radio-gel assay for hPNKP 3'-phosphatase activity; format: biochemical
# T1 construct: made in house; host or cells: bacteria (said only for the batch compared with aprataxin)
# [2] = biological target: T2, human PNKP (hPNKP) 3'-phosphatase activity (Homo sapiens, UniProt Q96T60); experiment: Fluorescence quenching-based screening assay for PNKP 3'-phosphatase activity; format: biochemical; settings: 100 μM compound, 50 ng hPNKP
# T2 construct: made in house; host or cells: bacteria (said only for the batch compared with aprataxin)
# Experimental: The […] assay developed originally for protein kinases by QTL Biosystems (Santa Fe, N. Mex.) was modified. […] The TAMRA-labelled oligonucleotide lacking a 3'-phosphate served as a control. […] The assay was performed in 384-well white Optiplate microplates (PerkinElmer, Woodbridge, ON) in 70 mM Tris-HCl, pH 7.4, 60 mM MgCl2, 5 mM MnCl2, 0.3% BSA, 0.09% sodium azide. Reaction buffer was prepared by adding 1 mM DTT immediately prior to use. Five μL of 3'-phosphatase substrate (final concentration 0.5 μM) was used per well. In duplicate, 10 μl of each concentration of hPNKP was added per well. Plates were incubated for 1 hour at 37° C. and then 15 μl of 1× sensor solution (provided by QTL) was added to each well and incubated for 30 minutes at room temperature. Fluorescence (485 nm excitation and 520 nm emission wavelengths) of each well was read in a FLUOstar Optima® (BMG Labtech Inc, Durham, N.C.). Data were analyzed using GraphPad Prism® Software (San Diego, Calif.). […] Small molecules were provided in powder form and were dissolved in 100% DMSO and a final concentration of 100 μM was added to each well and assays were performed as described above. After obtaining an optimum calibration curve and enzyme concentration curve, a simplified form of the assay to test the library in a short time, was employed. One concentration of hPNKP, 50 ng, was tested and compared with the control well with no enzyme. The assay was conducted in the same way as described above with respect to oligonucleotides, buffer, controls, incubation lengths/temperatures, centrifugations and sensor addition. The fluorescence-based phosphatase assay adapted was originally developed to monitor protein phosphatase activity (34). This assay involves a fluorescent sensor molecule coated in trivalent metal cations which causes superquenching of the sensor signal when in close proximity to a dye (TAMRA) on the substrate. The sensor is brought close to TAMRA via the ionic bond formed between the terminal DNA phosphate and the trivalent metal cations on the sensor. Removal of the phosphate leads to an elevation of fluorescence because the sensor is not brought close enough to TAMRA for its signal to be quenched. […] Heat inactivated hPNKP was used as a control.
# [3] = system: A549-VO vector only control cells
# [4] = system: M059J cells (DNA-PKcs negative); format: cell-based, human
# PP-1cγ = biological target: T3, PP-1cγ (Homo sapiens, UniProt P36873); experiment: PP-1cγ pNPP phosphatase assay; format: biochemical
# T3 construct: made in house; host or cells: E. coli
# Experimental: PP-1cγ and calcineurin activity was analyzed, using a colorimetric p-nitrophenol phosphate (pNPP) assay as previously described (33). The reaction were carried out in a 96-well microplate with a final volume of 60 μl containing 40 μl of pNPP assay buffer (50 mM Tris, pH 7.4, 0.1 mM EDTA, 30 mM MgCl2, 0.5 mM MnCl2, 1 mg/ml BSA, 0.2% β-mercaptoethanol), 0.03 μg PP-1cγ (specific activity>30 units per mg) or a catalytically equivalent quantity of calcineurin and 10 μl of 0.5 mM DNA 3′-phosphatase inhibitor sample in DMSO or 10 μl of 50 μM A12B4C3 sample in DMSO, or control solvent. After a 10-minute incubation at 37° C., 10 μl of 30 mM pNPP was added to each well and incubated for an additional of 60 minutes and 45 minutes for PP-1cγ and calcineurin, respectively.
# T3 sequence (P36873 whole entry): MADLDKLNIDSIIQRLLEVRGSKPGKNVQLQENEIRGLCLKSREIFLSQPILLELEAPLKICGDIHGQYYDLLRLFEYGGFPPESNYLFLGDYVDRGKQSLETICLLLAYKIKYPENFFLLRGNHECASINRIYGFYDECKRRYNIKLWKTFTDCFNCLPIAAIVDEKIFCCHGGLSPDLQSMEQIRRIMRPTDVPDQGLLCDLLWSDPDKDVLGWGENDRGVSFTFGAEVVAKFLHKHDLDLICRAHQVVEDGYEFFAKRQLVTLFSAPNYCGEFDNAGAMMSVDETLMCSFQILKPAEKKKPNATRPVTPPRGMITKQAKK
SMILES,"inhibition of hPNKP phosphatase activity, radio-gel assay [1]",inhibition of hPNKP phosphatase activity (substrate dephosphorylation) in the screening assay [2],cell survival of control cells (A549-VO) [3],cell survival of M059J cells [4],reduction of the activity of PP1 (PP-1cγ) [%]
"O=C1C2C=CC(C(O)c3ccccc3)N(Nc3ccc([N+](=O)[O-])cc3)C2C(=O)N1c1ccccc1 (stereo not drawn) [Compound A1B4C3, 2-(hydroxy(phenyl)methyl)-1-(4-nitrophenylamino)-6-phenyl-6,7a-dihydro-1H-pyrrolo[3,4-b]pyridine-5,7(2H,4aH)-dione]",inhibited,significant inhibition; also recorded: marked inhibition,–,–,–
"CN1C(=O)C2C=CC(C(O)C(c3ccccc3)c3ccccc3)N(NC(=O)OC(C)(C)C)C2C1=O (stereo not drawn) [Compound A26B11C2, tert-butyl 2-(1-hydroxy-2,2-diphenylethyl)-6-methyl-5,7-dioxo-2,4a,5,6,7,7a-hexahydro-1H-pyrrolo[3,4-b]pyridin-1-ylcarbamate]",inhibited,significant inhibition; also recorded: marked inhibition,–,–,–
"CN1C(=O)C2C=CC(C(O)c3cccs3)N(Nc3ccccc3)C2C1=O (stereo not drawn) [Compound A39B1C2, 2-(hydroxy(thiophen-2-yl)methyl)-6-methyl-1-(phenylamino)-6,7a-dihydro-1H-pyrrolo[3,4-b]pyridine-5,7(2H,4aH)-dione]",inhibited,significant inhibition; also recorded: marked inhibition,–,–,–
"O=C1NCCc2c(OCCCCN3CCCCC3)cccc21 [DPQ, 3,4-dihydro-5[4-(1-piperindinyl)butoxy]-1(2H)-isoquinoline]",–,–,no such relationship,reduced survival,–
"C=C1C(=O)N[C@H](C)C(=O)N[C@@H](CC(C)C)C(=O)N[C@@H](C(=O)O)[C@H](C)C(=O)N[C@@H](CCCNC(=N)N)C(=O)N[C@@H](/C=C/C(C)=C/[C@H](C)[C@H](Cc2ccccc2)OC)[C@H](C)C(=O)N[C@@H](C(=O)O)CCC(=O)N1C [microcystin LR, reference compound] (R[Adda][d(γGlu)][NMeDha][dA]L[dAsp(3S-Me)]-OH; lactam N-7)",–,–,–,–,~65

# Reference: US9694073B2, “Small molecule inhibitors of polynucleotide kinase/phosphatase, poly(ADP-ribose) polymerase and uses thereof” (THE GOVERNORS OF THE UNIVERSITY OF ALBERTA, priority 2009, dated 2017)
